In data set [1] the test system is MONO-MAC-6. The data set can be described thus: Cytotoxicity against human MONO-MAC-6 cells assessed as incorporation of [3H]thymidine incorporation. Format: functional, cell-based. In general terms: Incorporation of labelled thymidine or its analogues reports DNA synthesis.
The subject of data set [2] is HeLa. Description: Cytotoxicity against human HeLa cells assessed as incorporation of [3H]thymidine incorporation. Format: functional, cell-based.
Data set [3] deals with Bacillus subtilis. Description: Antimicrobial activities activity against Bacillus subtilis 168 at 100ug/disk after 24 hrs by agar plate diffusion assay. Format: functional, organism-based. The settings on record: subsp. subtilis str. 168.
Data set [4] has as its system Cladosporium cucumerinum. Description: Fungicidal activity against Cladosporium cucumerinum. Format: functional, organism-based.
Data set [5] concerns the target T1, Adenosine receptor A1 (Rattus norvegicus) (UniProt P25099).
T1 sequence (whole entry): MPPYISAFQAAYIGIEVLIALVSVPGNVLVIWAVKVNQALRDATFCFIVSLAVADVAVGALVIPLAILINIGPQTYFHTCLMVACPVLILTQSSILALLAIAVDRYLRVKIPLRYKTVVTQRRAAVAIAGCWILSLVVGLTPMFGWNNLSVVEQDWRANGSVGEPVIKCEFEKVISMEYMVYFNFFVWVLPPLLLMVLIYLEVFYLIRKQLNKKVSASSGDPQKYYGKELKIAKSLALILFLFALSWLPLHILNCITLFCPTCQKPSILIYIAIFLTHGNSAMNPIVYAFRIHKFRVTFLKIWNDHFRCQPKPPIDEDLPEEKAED
The data set can be described thus: Displacement of [3H]CHA from adenosine A1 receptor in rat brain cortical membrane at 100 uM. The format is cell membranes.

In data set [6] the test system is Spodoptera littoralis. The data set can be described thus: Insecticidal activity against Spodoptera littoralis larvae with artificial diet assessed survival after 6 days. The format is functional. The settings on record: 144 h.
Data set [7] has as its target Adenosine receptor A2a (Rattus norvegicus) (UniProt P30543). Description: Displacement of [3H]CGS21680 from adenosine A2A receptor in rat brain striatal membrane at 100 uM. Format: cell membranes.
Data set [8] is filed under the species Rattus norvegicus. Description: (§1) Displacement of [3H]diazepam from benzodiazepine binding site of GABAA receptor in rat brain cortical membrane. The format is cell membranes. (In general: In a radioligand displacement assay an active substance lowers the binding of a labelled ligand.)
For data set [9], the species on record is Rattus norvegicus. The data set can be described thus: Displacement of [3H]diazepam from benzodiazepine binding site of GABAA receptor in rat brain cortical membrane at 25 uM. Format: cell membranes.
The test system of data set [10] is Artemia salina. The data set can be described thus: Toxicity against Artemia salina at upto 100 ug/mL after 24 hrs. Format: organism-based. The settings on record: in vivo.
Data set [11] has as its system Escherichia coli. Description: Antimicrobial activities activity against Escherichia coli ATCC 25922 at 100ug/disk after 24 hrs by agar plate diffusion assay. Format: functional, organism-based.
A short description of data set [12]: as §1. Format: cell membranes.
In data set [13] the target is T1, Adenosine receptor A1 (Rattus norvegicus). Description: Displacement of [3H]CHA from adenosine A1 receptor in rat brain cortical membrane at 25 uM. Format: cell membranes.
The target of data set [14] is Adenosine receptor A2a (Rattus norvegicus) (UniProt P30543). The data set can be described thus: Displacement of [3H]CGS21680 from adenosine A2A receptor in rat brain striatal membrane at 25 uM. The format is cell membranes.
The nature of data set [15]: Toxicity against Artemia salina after 24 hrs. Format: organism-based. The settings on record: in vivo.
In data set [16] the target is Adenosine receptor A2a (Rattus norvegicus, UniProt P30543). Description: Displacement of [3H]CGS21680 from adenosine A2A receptor in rat brain striatal membrane. The format is cell membranes.
The target in data set [17] is T2, Adenosine receptor A1 (Rattus norvegicus, UniProt P25099).
T2 sequence (P25099 whole entry): T1 sequence (whole entry)
Description: Displacement of [3H]CHA from adenosine A1 receptor in rat brain cortical membrane. The format is cell membranes.

The structures appear in SMILES notation. pKi: −log10 of the molar value. In brackets after ≈: the same amount, converted by molar mass. Activity calls are given as the source filed them. No cut-off for these calls is given here.

The IC50 is the concentration that inhibits the measured activity by half. A word on the pKi: it is −log10 of the Ki, conventionally taken in molar units. Low readings indicate a high Ki, high ones a low Ki. What is called LC50 is the concentration that kills 50% of the test population. Read a low LC50 as a more lethal substance.

Adenosine receptor A2a (Rattus norvegicus), sequence (P30543 whole entry): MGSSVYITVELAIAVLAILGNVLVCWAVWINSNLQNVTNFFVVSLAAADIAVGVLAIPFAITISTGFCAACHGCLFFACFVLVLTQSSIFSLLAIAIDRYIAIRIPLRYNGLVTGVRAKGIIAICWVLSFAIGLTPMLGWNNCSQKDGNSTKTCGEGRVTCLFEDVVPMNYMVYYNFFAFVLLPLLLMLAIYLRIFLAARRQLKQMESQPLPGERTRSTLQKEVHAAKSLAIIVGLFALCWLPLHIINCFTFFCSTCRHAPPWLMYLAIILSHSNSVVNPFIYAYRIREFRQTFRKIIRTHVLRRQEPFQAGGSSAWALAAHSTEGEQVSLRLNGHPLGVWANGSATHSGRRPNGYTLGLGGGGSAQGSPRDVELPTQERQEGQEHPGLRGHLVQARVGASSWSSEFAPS
Adenosine receptor A2a, sequence (P30543 whole entry): as above

Take `NCCc1c2c3c(ccnc3c3ncsc13)-c1ccccc1N2`: the values for the IC50 in [1] and in [2] were 2 µg/mL (≈ 6.28 µM) and 1.2 µg/mL (≈ 3.77 µM), respectively. In addition, the result in [3], in data set [4] and in data set [11] was inactive. Moreover, the Activity is 36% in data set [5], 46% in data set [7], 30% in data set [9] and “Non-toxic” in data set [10]. Further, the EC50 in [6] (read-out: ED50 (the source's name)) was 141 µg/mL (≈ 443 µM). Further, the result in [8] was Active.

Molecule `Cn1c(=O)c2c(ncn2C)n(C)c1=O` [CAFFEINE] showed a pKi in data set [12] of 3.42.

As for `CCC(=O)NCCc1c2c3c(ccnc3c3ncsc13)-c1ccccc1N2` [KUANONIAMINE C], the figures for the Activity in data set [13], in [14] and in data set [9] were 34%, 43% and 39%, respectively. The figures for the IC50 in data set [1] and in data set [2] were 1.2 µg/mL (≈ 3.2 µM) and 5.1 µg/mL (≈ 13.6 µM), respectively. The result in data set [3], in [4] and in [11] was inactive. In data set [6], this molecule came in with an LC50 of 156 µg/mL (≈ 417 µM). The outcome in [8] was Active. In addition, in [15], the LC50 at 24 h turned out to be 37 µg/mL (≈ 98.8 µM).

As to `CC(=O)NCCc1c2c3c(ccnc3c3ncsc13)-c1ccccc1N2` [KUANONIAMINE D], the Activity in data set [13] is 68%; in data set [14], 56%; in data set [9] it was 32%. Further, the figures for the negative logarithm of the Ki (pKi) in [16] and in data set [17] were 4.86 and 5.53, respectively. Further, the half-inhibitory concentration (IC50) in data set [1] was 0.8 µg/mL (≈ 2.22 µM); in data set [2], 1.4 µg/mL (≈ 3.88 µM). In addition, the outcome in data set [3], in data set [4] and in data set [11] was inactive. Moreover, in data set [6], the LC50 stood at 59 µg/mL (≈ 164 µM). For the same molecule, the outcome in data set [8] was Active. In data set [15], this molecule yielded a 50% lethal concentration (LC50) at 24 h of 19 µg/mL (≈ 52.7 µM).

Source of the values: ChEMBL document CHEMBL1141731, “Bioactive pyridoacridine alkaloids from the micronesian sponge Oceanapia sp” (J Nat Prod, 1998).
